{"source": "patent US9765061B2", "about": "“Trail enhancers for the selective killing of cancer cells” (The Scripps Research Institute, priority 2013, dated 2017)", "key": {"[1]": {"test_system": "primary human hepatocytes", "test": "Viability and apoptosis of primary human hepatocytes from normal donors", "format": "cell-based", "settings": "hepatocytes from normal donors", "experimental": "FIG. 8: Safety and pro-apoptotic. activity of (C12). Cells were incubated with TRAIL, (C12), […] (Bor) or a combination of TRAIL and (C12) or Bor as indicated, and cell viability (top panels) or the cleavage of PARP (bottom panels) was determined. (A) Lung cancer cell line A549. (B) Primary human hepatocytes from normal donor.\nTherefore, to assess a potential utility of C12 for anti-cancer therapy, we compared the effects of these two compounds—(C12) and bartezomid (Bor)—on TRAIL-mediated apoptosis in cancerous A549 cells and primary human hepatocytes.\nCancer and normal cell culture. Lung cancer cell line A549 and colon cancer cell line HT29 were purchased from ATCC. Breast cancer cell line MDA-MB-468 was received from J. C. Reed (The Burnham Institute, La Jolla, Calif.). Cell lines were maintained in growth medium (GM): DMEM medium (4.5 g/l glucose) supplemented with 10% FBS (HyClone, Logan, Utah), L-glutamine, penicillin/streptomycin and nonessential ammo acids (Invitrogen, Carlsbad, Calif.). Normal human bronchial epithelial (NHBE) cells and normal human mammary epithelial (NHME) cells were obtained from Cambrex (East Rutherford, N.J.) and cultured as recommended by the manufacturer. Normal human colon smooth muscle cells were obtained from ScienCell Research Lab (San Diego, Calif.) and cultured as recommended by the manufacturer. Primary cultures of human hepatocytes (freshly plated; not cryopreserved) and culture medium were obtained from Celsis In Vitro Technologies (Baltimore, Md.). Upon receipt of the cells, the medium was gently aspirated from each well and replenished with InVitroGRO HI medium supplemented with Torpedo Antibiotic Mix (Celsis), and the plates were kept in a 5% CO2, at 37° C. in an incubator at saturating humidity. After 2-4 h, cells were stimulated as described in the text and FIG. legends.\nCytotoxicity was determined by using the XTT-based toxicology assay kit (Sigma, St. Louis, Miss.) in accordance with the manufacturer's instructions. For some experiments, to confirm the apoptotic nature of toxicity, cells were analyzed using protocols and instructions of the Annexin V-FITC apoptosis detection kit (Biovision, Mountain View, Calif.). In addition, caspase 3, 8 and 9 activities were determined by colorimetric assays (R&D System), and the data are expressed as fold increases compared to the values of untreated or control-treated cells (n=5)."}, "sXBP1 (UPR)": {"test_system": "sXBP1 (UPR)", "test": "sXBP1 generation in mouse lung after administration", "format": "in vivo", "settings": "administration into mouse lung, FIG. 1F", "description": "FIG. 1: C12 induces the UPR in mammalian cells. (A and B). Comparison of the macrophage responsiveness to P. aeruginosa (P.a.), S. typhimurium (S.t), and S. aureus (S.a.). RT-PCR assay of XBP1 (A) and Western blot analysis (B) of p38, its phosphorylated form (p-p38) as well as phosphorylated forms of PERK (p-PERK) and eIF2α (p-eIF2α) in cell extracts after treatment with bacteria are shown. (C) Macrophages were stimulated with P. aeruginosa wild type (wt) or lasI mutant (ΔlasI), and cell extracts (total RNA or total protein) were prepared and analyzed as in (A and B). (D and E) RT-PCR assay of XBP1 or actin in total RNA prepared from macrophages after treatment with compound (C12), i.e., the (S)-enantiomer, or with the (R)-enantiomer (C12R), or the hydrolysis product (C12h) are shown. (F) Total RNA was prepared from lung of mice after inoculation of vehicle (-) or (C12) and analyzed in (D). (G) Chemical structures of compounds (C12), (C12R) and (C12h). Compound (C12) is the (S)-enaniiomer of the compound of formula: […]\nImportantly, the similar requirements in the structural integrity of the lactone ring motif were also evident in response to other natural stereoisomer of the AHL family (Table 1). […]"}}}
{"smiles": "CCCCCCCCCC(=O)CC(=O)N[C@H]1CCOC1=O", "note": "[Compound 1, N-(3-oxo-dodecanoyl) homoserine lactone]", "values": [{"measurement": "toxicity to human hepatocytes, compound alone or in combination with TRAIL", "setting": "[1]", "result": "practically healthy and intact"}, {"measurement": "generation of sXBP1 in lung", "setting": "sXBP1 (UPR)", "result": "resulted in the generation of sXBP1"}]}
